According to US9486443B2, “Pharmaceutical composition for preventing or treating hypertriglyceridemia or hypertriglyceridemia-associated diseases” (priority 2011, dated 2016):

Experiments:
[1] = tested on: hypertriglyceridemia and hypercholesterolemia-induced animals; experiment: Evaluation of triglyceride-inhibitory activities in hypertriglyceridemia and hypercholesterolemia-induced animals; assay type: in vivo, New Zealand White rabbits; conditions: oral, Formula 1 20 mg/kg/day, amlodipine 5 mg/kg/day; for average triglyceride concentration, 4 weeks: male rabbits on 0.5% cholesterol, 14% coconut oil diet, once per day for 4 weeks, fasted 12 to 16 hours
Excerpt: Male New Zealand White rabbits were used as a test animal. All animals, except for the G1 group animals (negative control group), were fed with an irradiation-sterilized hypertriglyceridemia and hypercholesterolemia diet, i.e., DYET #621082 (Purina #5321 chow with 0.5% cholesterol, 14% coconut oil & 2% Maltose Dextrin, Dyets, Inc., Bethlehem, Pa. 18017), which was purchased from Saeronbio Inc. In order to induce hypertriglyceridemia and hypercholesterolemia, the animals were supplied with the diet for more than 4 weeks. After collecting the blood samples from the animals, serum biochemical analyses were performed thereon. Animals showing significant changes in total cholesterol levels and triglyceride levels were selected, in comparison with the non-treated control group. The selected animals were divided into 4 groups on the basis of the total cholesterol levels and triglyceride levels, thereby all the groups having substantially equal average values in the total cholesterol levels and triglyceride levels. The test materials were dissolved in saline containing 0.5% carboxymethyl-cellulose sodium and 1% Tween 80 and then administered directly into the stomach using an oral syringe adapted with a latex catheter, once per day for 4 weeks. The test groups are as in the following Table 3.
The blood samples were collected through the jugular vein, from the animals at the day initiating the administration of the test material(s) (i.e., at the time of group-dividing, 0 week), and from the animals (which were fasted for 12 to 16 hours before collecting the blood) at 4 weeks after initiating the administration of the test material(s) (n=4-7).
The triglyceride concentrations in the hypertriglyceridemia and hypercholesterolemia-induced animals as in the above are presented in the following Table 4. The values in Table 4 represent average triglyceride concentrations (mg/dL) of the respective group.

[2] = tested on: hypercholesterolemia-induced animals; experiment: Evaluation of triglyceride-inhibitory activities in hypercholesterolemia-induced animals; assay type: in vivo, New Zealand White rabbits; conditions: male rabbits on 1% cholesterol diet
Excerpt: Male New Zealand White rabbits were used as a test animal. All animals, except for the G1 group animals (negative control group, n=4), were fed with an irradiation-sterilized hypercholesterolemia diet, i.e., DYET #620007 (Purina #5321 chow with 1% cholesterol, Dyets, Inc., Bethlehem, Pa. 18017), which was purchased from Central Lab. Animal Inc. In order to induce hypercholesterolemia, the animals were supplied with the diet for more than 8 weeks. After collecting the blood samples from the animals, serum biochemical analyses were performed thereon. Animals having total cholesterol levels of approximately 870 mg/dL were selected as a hypercholesterolemia-induced animal. The test materials were dissolved in saline containing 0.5% carboxymethylcellulose sodium and 1% Tween 80 and then administered directly into the stomach using an oral syringe adapted with a latex catheter, once per day for 4 weeks. The test groups are as in the following Table 1. […] The values in Table 2 represent average triglyceride concentrations (mg/dL) of the respective group.

Structure (SMILES)	inhibition at 20 mg/kg ([1]; Oryctolagus cuniculus, 672 h, 4 weeks, in comparison with the G2 group, once per day, read-out: Percent inhibition of triglyceride in the blood) [%]	average triglyceride concentration, 4 weeks [1] [mg/dL]	average triglyceride concentration, 0 week ([2]; baseline sample (0 week), before administration, group average) [mg/dL]	average triglyceride concentration, 2 weeks ([2]; oral, once per day, 2 weeks after initiating administration, fasted 12 to 16 hours, Formula 1 20 mg/kg/day, amlodipine 5, fenofibrate 30) [mg/dL]	average triglyceride concentration, 4 weeks ([2]; oral, once per day, 4 weeks after initiating administration, fasted 12 to 16 hours, Formula 1 20 mg/kg/day, amlodipine 5, fenofibrate 30) [mg/dL]	Percent inhibition of triglyceride in the blood ([1]; 4 weeks, in comparison with the G2 group, once per day) [%]
COc1cc(F)c(C(C)C)cc1-c1ccc(C(F)(F)F)cc1CN1C(=O)O[C@H](c2cc(C(F)(F)F)cc(C(F)(F)F)c2)[C@@H]1C [Compound of Formula 1, (4S,5R)-5-[3,5-bis(trifluoromethyl)phenyl]-3-({2-[4-fluoro-2-methoxy-5-(propan-2-yl)phenyl]-5-(trifluoromethyl)phenyl}methyl)-4-methyl-1,3-oxazolidin-2-one]	10.2	293.1	167.4	255.8	356.7	
CCOC(=O)C1=C(COCCN)NC(C)=C(C(=O)OC)C1c1ccccc1Cl (stereo not shown) [Amlodipine, reference compound]		268.0				17.9
